Measured values published in US8962263B2, “Methods and compositions for detecting the activation state of multiple proteins in single cells” (The Board of Trustees of the Leland Stanford Junior …, priority 2001, dated 2015).

How the values were obtained:
[1] = test system: ezrin; assay: phosphotyrosine-protein based elisa for ezrin tyrosine phosphorylation upon ICAM-2 ligation; format: cell-based, human; details: Jurkat cells
Procedure: A) Expression levels of ICAM-2, vary across cell lines of different origins. Quantitative flow cytometry analysis was performed to assess the number of ICAM-2 surface molecules across transformed and untransformed fibroblasts, lymphocytes of T-cell and different B-cell differentiation states and myeloid lineages (see Material and Methods for elaboration). The number of surface molecules/cell is expressed as the mean (bar)+/−SD of triplicate experiments. B) Crosslinking of endogenous ICAM-2, induces ezrin tyrosine phosphorylation and enhanced ICAM-2, interaction. Jurkat cells were crosslinked for ICAM-2 using monoclonal antibody for the indicated times and subjected to immunoprecipitation/immunoblotting as indicated. C) Inhibition of ezrin phosphotyrosine by chemical inhibitors of src and Rho-dependent kinases. D) Ezrin phosphorylation and enhanced interaction with the p85, subunit of PI3K as a function of ICAM-2. Determined as described above. E) PDK-1, activity as a function of ICAM-2, ligation, as described above). F) PI3K and AKT localize to the membrane as a function of ICAM-2, ligation. Membrane/cytosolic fractionation was performed on ICAM-2, ligated Jurkat cells as a function of time and subjected to immunoblotting for PI3K and AKT.
In order to identify upstream kineses capable of tyrosine phosphorylating ezrin as a function of ICAM-2 ligation, we developed a phosphotyrosine-protein based elisa to screen for the inhibition of ezrin tyrosine phosphorylation in vivo by various known inhibitors of protein kineses (Perez and Nolan, manuscript in preparation). […] Given the design of the screen to detect tyrosine residue phosphorylation, we speculate that activation of Rho-dependent processes may be a prerequisite for ezrin to be tyrosine phosphorylated by src (elaborated below).

[2] = test system: Syk; assay: sICAM-2 induced Syk phosphorylation (phospho-tyrosine based ELISA, chemical genetic approach); format: cell-based; details: sICAM-2 stimulus
Source text: (§1) E) depicts that LFA-1, induced phosphorylation of Pyk2, and Syk is dependent on PKC. We screened for the inhibition of sICAM-2, induced Pyk2, and Syk phosphorylation by chemical inhibitors to tyrosine kinases using a phospho-tyrosine based ELISA. Pyk2, phosphorylation was abrogated in the presence of PKC inhibitors bisindolymaleimide II (BIM II) and staurosporine (STP), in addition to tyrphostin A9, a specific Pyk2, inhibitor. a Pyk2, phosphorylation was also affected by inhibitors of phospholipase Cg (neomycin), inhibitors of Syk (piceatannol), and PKC inhibitor BIM I. Syk phosphorylation was completely abolished by inhibition of Pyk2, PLCg1, and strongly affected by PKC inhibitors. Thus, both Pyk2, and Syk phosphorylations were dependent on PKC activity, while Syk phosphorylation was additionally dependent on PLCg1, and Pyk2, activity. It was not possible to assess specific PKC isozymes by this method.
A chemical genetic approach was undertaken to determine the hierarchy of PKC, Pyk2, PLCg1, and Syk activities in response to sICAM-2, stimulus by verifying phosphorylation status of each kinase in the presence of respective chemical inhibitors. Inhibition of PKC with BIM II abrogated phosphorylation of Pyk2, PLCg1, and Syk. Inhibition of PLCg1, by neomycin abrogated phosphorylation of Syk, with no inhibition observed for Pyk2. […]

[3] = test system: PLCg1; assay: sICAM-2 induced PLCg1 phosphorylation (chemical genetic approach); format: cell-based; details: sICAM-2 stimulus
Source text: (§2) A chemical genetic approach was undertaken to determine the hierarchy of PKC, Pyk2, PLCg1, and Syk activities in response to sICAM-2, stimulus by verifying phosphorylation status of each kinase in the presence of respective chemical inhibitors. Inhibition of PKC with BIM II abrogated phosphorylation of Pyk2, PLCg1, and Syk. Inhibition of PLCg1, by neomycin abrogated phosphorylation of Syk, with no inhibition observed for Pyk2. […] Thus, the upstream signaling events from LFA-1, to Raf-1, appear to involve PKC/Pyk2/PLCg1/Syk. […] We are currently pursuing these complexes in a separate study.

[4] = test system: NIH3T3; assay: staurosporine induced apoptosis in ICAM-2 transduced NIH3T3 (annexin-V binding, BrdU TUNEL); format: cell-based, murine
Procedure: A) Pharmacological inhibitors of PI3K abrogate ICAM-2's anti-apoptotic. ICAM-2, or vector transduced BaF3, cells were treated with staurosporine (1, μM) with (unfilled) or without (filled) the addition of 100, nM wortmannin for 24, hours (left bar graph). Apoptosis was determined by nuclear staining and fluorescence microscopy (left bar graph) and by annexin-V binding assay (right bar graph). The proportion of apoptotic cells in each culture without staurosporine was 8%+/−2. The percentage of apoptotic cells is expressed as the mean (bar)+SD of triplicate cultures. ICAM-2, 1CAM2-AC, or vector transduced NIH3T3, were treated with staurosporine ([…]) in the presence or absence of 10, μM LY294002, for 24, hours (right bar graph). DMSO vehicle served as negative control. The percentage of apoptotic cells is expressed as the mean (bar)+/−SD of triplicate cultures. B) Confocal images of PI3K and AKT localization in ICAM-2, (top) or vector control cells (bottom). C) Confocal images of ezrin and the p85, subunit of PI3K (green) localization in ICAM-2, (top) or vector control cells (bottom).
A) The anti-apoptotic effect of ICAM-2, is both wortmannin and LY294002, sensitive. ICAM-2, or vector transduced BaF3, cells were treated with staurosporine (1, μM) with (unfilled) or without (filled) the addition of 100, nM wortmannin for 24 hours. Apoptosis was determined by nuclear staining and fluorescence microscopy (left bar graph) and by annexin-V binding assay (right bar graph). The proportion of apoptotic cells in each culture without staurosporine was 8%±2. The percentage of apoptotic cells is expressed as the mean (bar)±SD of triplicate cultures. ICAM-2, ICAM2-ΔC, or vector transduced NIH3T3, were treated with staurosporine (1, μM) in the presence or absence of 10, μM LY294002, for 24, hours. DMSO vehicle served as negative control. The percentage of apoptotic cells is expressed as the mean (bar)±SD of triplicate cultures. B) ICAM-2, expressing NIH3T3, cells are sensitive to apoptosis in the presence of PI3K inhibitor LY294002. BrdU TUNEL assay was performed in staurosporine (1, μM) or LY294002, (10, μM) treated ICAM-2, ICAM2-ΔC, and control vector transduced NIH3T3, cells. The percentage of apoptotic cells is expressed as the mean (bar)±SD of triplicate cultures.
Apoptosis was determined either by counting pyknotic nuclei, annexin-V binding by flow cytometry, or TUNEL BrdU staining by flow cytometry as indicated. Apoptosis was induced either by staurosporine (1 μm), treatment with anti-mouse Fas (5 μq/ml Santa Cruz Biotechnology (SCB), […] Fas (5 μg/ml Jo2 Biomed) or anti-human Fas (10 ng/ml CH11 Kamiya Biomedical) as indicated in appropriate experiment, IL-3 withdrawal-(24 hrs) or as indicated. For pyknolic nuclei count, NIH3T3 cells were grown on glass coverslips and assayed for apoptosis. Suspension cells were analyzed by nuclear staining with 25 μM acridine orange/25 μm ethidium bromide or 5 μg/ml Hoechst 33342 (Molecular Probes, Eugene, Oreg.). Apoptosis was identified by the presence of characteristic pyknotic nuclei as described (Jacobson and Raff, 1995). At least 5 individual fields were photographed and counted using a Zeiss axioscope fluorescence microscope. For the survival assay 10^6 NIH3T3 cells were plated in 10 cm dishes and incubated overnight at 37° C. The cells were treated with 1 μM staurosporine for 24 hours. The cells were washed and cultured for 24 hours in complete medium. The cells were trypsinized and viable cells counted following trypan blue staining. Untreated cells were counted at the time of treatment. % survival represents (number of viable cells post-treatment)/(number of viable cells pretreatment). FACS based annexin-V-FITC/PI staining was done as described (PharMingen). TUNEL assay was performed as described by manufacturer of Apoptosis BrdU kit (Promega). […]

[5] = test system: Pyk2; assay: sICAM-2 induced Pyk2 phosphorylation (phospho-tyrosine based ELISA, chemical genetic approach); format: cell-based; details: for phosphorylation of Pyk2: chemical genetic approach, sICAM-2 stimulus; for sICAM-2 induced Pyk2 phosphorylation: phospho-tyrosine based ELISA
Source text: as §1, §2

[6] = test system: HL60 cells; assay: FACS based effector-target killing assay, human PBMC against CFSE labeled HL60 cells; format: cell-based; details: 10 μg/ml, 50:1 E:T ratio, 4 hrs
Procedure: A) PBMC were either treated with ICAM-2, (10 μg/ml) in the presence of IL-2, for 12, hr and then incubated with CFSE labeled target HL60, cells at a 50:1, E:T ratio for 4, hrs. Remaining HL60, cells were quantified by flow cytometry. B) PBMC were treated with IL-2, (100, U/ml, 12, hrs) and treated with ICAM-1,-2, or 3, FC proteins (10, μg/ml) and used in a cytotoxicity assay as described above. Results are representative of 4, independent experiments.
(§3) Target cell lysis was measured by flow cytoemtric based detection of CFSE labeled HL60 cells. HL60 cells were labeled with 1 μg of CFSE (30 min, 37° C.). Targets were washed twice and mock treated, IL-2 activated (100 U/ml), CD3/CD28 activated (1 μg/ml), or treated with ICAM2 beads or soluble ICAM-1, -2, or 3 (10 μg/ml, 30 min, 37° C.) before plating at 10^4 target cells/well of a 96-well round bottom plate. CTLs were added at 50:1, 25:1, and 12.5:1 E:T ratio, and incubated at 37° C. for 4 hrs. Cells were then processed for multiparameter flow cytometry and intracellular perforin stain. Percent specific lysis was calculated by the following equation: % specific lysis=100-100×(experimental HL60 count/total control HL60 count). HL60 counts were detectable by the CFSE fluorescence. Percent perforin was calculated by the following equation: % perforin=100×[(experimental perforin MFI−isotype mAb MFI)/(total perforin MFI−isotype mAb MFI)]. MFI refers to mean fluorescent intensity of flow cytoemtric based intracellular detection. Cell conjugates were determined by flow cytometry as described (Morgan et al., 2001). Chemical inhibition was done at 10 μM of indicated compound (30 min, 37° C.) prior to stimulation as indicated. All experiments were performed in triplicate.

[7] = test system: CD56 CD8 cytotoxic lymphocyte subsets; assay: intracellular perforin and granzyme-A in CD56CD8 subsets of human PBMC by flow cytometry; format: cell-based; details: for granzyme-A negative population: CD56+CD8high population; for changes in intracellular perforin or granzyme-A: CD56+CD8low population; for frequency of the perforin negative population: CD56+CD8med population
Procedure: IL-2, activated PBMC (shown in A-1 and A-3) were mock-treated (IgG) (A-2) , ICAM-1, (A2), ICAM-2, (A4), or ICAM-3, (A4) treated (10, μg/ml of FC fusion protein) for 12 hrs prior to incubation with target HL60, cells at a 50:1, E:T ratio for 4, hrs. Cells were then prepared for flow cytometry with CD8-CY5PE, CD56-PE surface stains, and perforin-CY5, and granzyme-A-FITC intracellular stains. Cells were gated for CD56^+CD8^low, CD56^+CD8^med, CD56^+, CD8^high, CD56^−, CD8^−, , CD56^−-CD8^high, populations as shown in A-1 and A-3 and population frequencies within appropriate gate. […] Results are representative of 3 independent experiments and were similar at 25:1 and 12.5:1 E:T ratios (data not shown). Manual calibration was performed. […] Perforin percentage was calculated from the following equation where MFI equals mean fluorescent intensity: 100×[(MFIexperimental−MFIisotype mAb)/(MFIcontrol−MFlisotype mAb)] Unstimulated cells were used as control.
as §3

Row | Molecule | tyrosine phosphorylation of ezrin [1] | phosphorylation of Syk [2] | phosphorylation of PLCg1 [3] | ICAM-2 induced survival signal ([4]; PKC isozyme inhibitors, system not specified) | effect on ICAM-2 anti-apoptotic effect, other kinase inhibitors ([4]; cell type not stated, data not shown) | phosphorylation of Pyk2 [5] | sICAM-2 induced Pyk2 phosphorylation [5] | target cell lysis of HL60 cells [6] | granzyme-A negative population [7] | changes in intracellular perforin or granzyme-A [7] | frequency of the perforin negative population [7]
1 | CN1CCCC1CCn1cc(C2=C(c3c[nH]c4ccccc34)C(=O)NC2=O)c2ccccc21 (stereo not drawn) [bisindolymaleimide II] | minor affects | abrogated | abrogated | did not abrogate | not abrogated | abrogated | abrogated |  |  |  | 
2 | neomycin |  | abrogated |  |  |  | no inhibition | affected |  |  |  | 
3 | ICAM-3: recombinant human ICAM3-FC, soluble LFA-1 ligand (protein, left off: a dimerising Fc or GST, recombinant human ICAM3-FC, soluble LFA-1 ligand) QEFLLRVEPQNPVLSAGGSLFVNCSTDCPSSEKIALETSLSKELVASGMGWAAFNLSNVTGNSRILCSVYCNGSQITGSSNITVYRLPERVELAPLPPWQPVGQNFTLRCQVEDGSPRTSLTVVLLRWEEELSRQPAVEEPAEVTATVLASRDDHGAPFSCRTELDMQPQGLGLFVNTSAPRQLRTFVLPVTPPRLVAPRFLEVETSWPVDCTLDGLFPASEAQVYLALGDQMLNATVMNHGDTLTATATATARADQEGAREIVCNVTLGGERREARENLTVFSFLGPIVNLSEPTAHEGSTVTVSCMAGARVQVTLDGVPAAAPGQPAQLQLNATESDDGRSFFCSATLEVDGEFLHRNSSVQLRVLYGPKIDRATCPQHLKWKDKTRHVLQCQARGNPYPELRCLKEGSSREVPVGIPFFVNVTHNGTYQCQASSSRGKYTLVVVMDIEAGSSH |  |  |  |  |  |  |  | did not initiate as potent a cytotoxic cell response | 3.07% | no significant changes | 19.8%
4 | ICAM-1: recombinant human ICAM-1-FC, soluble LFA-1 ligand (protein, left off: a dimerising Fc or GST, recombinant human ICAM-1-FC, soluble LFA-1 ligand) QTSVSPSKVILPRGGSVLVTCSTSCDQPKLLGIETPLPKKELLLPGNNRKVYELSNVQEDSQPMCYSNCPDGQSTAKTFLTVYWTPERVELAPLPSWQPVGKNLTLRCQVEGGAPRANLTVVLLRGEKELKREPAVGEPAEVTTTVLVRRDHHGANFSCRTELDLRPQGLELFENTSAPYQLQTFVLPATPPQLVSPRVLEVDTQGTVVCSLDGLFPVSEAQVHLALGDQRLNPTVTYGNDSFSAKASVSVTAEDEGTQRLTCAVILGNQSQETLQTVTIYSFPAPNVILTKPEVSEGTEVTVKCEAHPRAKVTLNGVPAQPLGPRAQLLLKATPEDNGRSFSCSATLEVAGQLIHKNQTRELRVLYGPRLDERDCPGNWTWPENSQQTPMCQAWGNPLPELKCLKDGTFPLPIGESVTVTRDLEGTYLCRARSTQGEVTRKVTVNVLSPRYE |  |  |  |  |  |  |  | did not initiate as potent a cytotoxic cell response | 4.12% | no significant changes | 13.7%
